The values that follow come from publication PMC7933316 (2021).

What all share (assay): SPR (equilibrium)
Test [1] has as its system TZea-579 large stem loop (RNA, aptamer) GGGACCGGGUAGAACAGAAUGCAAGUGCGUAGAAGCGCCUCCGGUCCCCAAAAAAAAAAAAAAAAAAAAAAAA
Particulars: Na+ (1.5 M NaCl [sic]), Mg2+ 0.5 mM; HBS-N (0.1 M HEPES [sic]), pH 7.4.

The test system of test [2] is TZea-927 (full length, G12A, SPR form) (RNA, ribozyme) GGGAAACAAACAAAGCUGUCACCGGAAACUGGAUCUGGUCUGAUGAGUCCCUCCAUGCGACCCAGUGUGAUACGUGGACAGGACAAAACAGCAAAAAAAAAAAAAAAAAAAAAAAA
As to conditions: Na+ (1.5 M NaCl [sic]), Mg2+ 0.5 mM; HBS-N (0.1 M HEPES [sic]), pH 7.4.

Test [3] relates to TZea-579 (full length, G12A, SPR form) (RNA, ribozyme) GGGAAACAAACAAAGCUGUCACCGGGUAGAACAGAAUGCAAGUGCGUAGAAGCGCCUCCGGUCUGACGAGUCCUUAGCACGGACAAAACAGCAAAAAAAAAAAAAAAAAAAAAAAA
Particulars: Na+ (1.5 M NaCl [sic]), Mg2+ 0.5 mM; HBS-N (0.1 M HEPES [sic]), pH 7.4.

For test [4], the system named is TZea-927 large stem loop (T7_zea927_polyA) (RNA, aptamer) GGGGUCCCUCCAUGCGACCCAGUGUGAUACGUGGACAGGACCCCCAAAAAAAAAAAAAAAAAAAAAAAA
Particulars: Na+ (1.5 M NaCl [sic]), Mg2+ 0.5 mM; HBS-N (0.1 M HEPES [sic]), pH 7.4.

Test [5] concerns Gard-547 (full length, G12A, SPR form) (RNA, ribozyme) GGGAAACAAACAAAGCUGUCACCGGAAUAGUCGAUGGGUGCUACAUAGCGCCGGAAUCCAGUCUGAUGAGUCUCUCGGCAGGACAAAACAGCAAAAAAAAAAAAAAAAAAAAAAAA
Particulars: Na+ (1.5 M NaCl [sic]), Mg2+ 0.5 mM; HBS-N (0.1 M HEPES [sic]), pH 7.4; no replicates.

Test [6] relates to SRet-584 (full length, G12A, SPR form) (RNA, ribozyme) GGGAAACAAACAAAGCUGUCACUGGACGCAAAAAUUCCAGUCUGAUGAGUCCAUAAUGAGCAACAACACGAUUCCUCAUGCGGGACAAAACAGCAAAAAAAAAAAAAAAAAAAAAAAA
As to conditions: Na+ (1.5 M NaCl [sic]), Mg2+ 0.5 mM; HBS-N (0.1 M HEPES [sic]), pH 7.4.

In test [7] the test system is SRet-760 (full length, G12A, SPR form) (RNA, ribozyme) GGGAAACAAACAAAGCUGUCACUGGACCCUAACAUUCCAGUCUGAUGAGUCCUAUAGGCACGCUUCCCCCAGGUGUAGGGAGGACAAAACAGCAAAAAAAAAAAAAAAAAAAAAAAA
As to conditions: Na+ (1.5 M NaCl [sic]), Mg2+ 0.5 mM; HBS-N (0.1 M HEPES [sic]), pH 7.4.

Test [8] has as its system SRet-760 large stem loop (T7_SRet760_polyA) (RNA, aptamer) GGGGUCCUAUAGGCACGCUUCCCCCAGGUGUAGGGAGGACCCCCAAAAAAAAAAAAAAAAAAAAAAAA
Particulars: Na+ (1.5 M NaCl [sic]), Mg2+ 0.5 mM; HBS-N (0.1 M HEPES [sic]), pH 7.4.

The test system of test [9] is Nosc-441 (full length, G12A, SPR form) (RNA, ribozyme) GGGAAACAAACAAAGCUGUCACCGGAAGAACUGACAUUUGCAACGUCAUGUGCGAUGUCCAACGUGUAGCCACCUAGGCGUACAGAUCCGGUCUGAUGAGUCCUCGAUGGACAAAACAGCAAAAAAAAAAAAAAAAAAAAAAAA
Particulars: Na+ (1.5 M NaCl [sic]), Mg2+ 0.5 mM; HBS-N (0.1 M HEPES [sic]), pH 7.4.

Test [10] deals with Nosc-786 (full length, G12A, SPR form) (RNA, ribozyme) GGGAAACAAACAAAGCUGUCACCGGAAGAACUUACAUUUGCAACGUCAUGUGCGAUGUCCAACGUGUAGCCACCUAGGCGUACAGAUCCGGUCCGAUGAGUCCUCGAUGGACAAAACAGCAAAAAAAAAAAAAAAAAAAAAAAA
Particulars: Na+ (1.5 M NaCl [sic]), Mg2+ 0.5 mM; HBS-N (0.1 M HEPES [sic]), pH 7.4.

For test [11], the system named is Nosc-441 large stem loop (RNA, aptamer) GGGACCGGAAGAACUGACAUUUGCAACGUCAUGUGCGAUGUCCAACGUGUAGCCACCUAGGCGUACAGAUCCGGUCCCCAAAAAAAAAAAAAAAAAAAAAAAA
As to conditions: Na+ (1.5 M NaCl [sic]), Mg2+ 0.5 mM; HBS-N (0.1 M HEPES [sic]), pH 7.4.

Test [12] concerns Theo-421 (full length, G12A, SPR form) (RNA, ribozyme) GGGAAACAAACAAAGCUGUCACCGGAAUGUGAGUCCGGUCUGAUGAGUCCCUCAUGUGCCUUCCAGCGGUACGAUACUCAGGACAAAACAGCAAAAAAAAAAAAAAAAAAAAAAAA
Particulars: Na+ (1.5 M NaCl [sic]), Mg2+ 0.5 mM; HBS-N (0.1 M HEPES [sic]), pH 7.4.

The subject of test [13] is Theo-421 truncation, 1st suboptimal structure (T7_theo421_polyA_subopt1) (RNA, aptamer) GGGUGAGUCCCUCAUGUGCCUUCCAGCGGUACGAUACUCACCCCAAAAAAAAAAAAAAAAAAAAAAAA
Particulars: Na+ (1.5 M NaCl [sic]), Mg2+ 0.5 mM; HBS-N (0.1 M HEPES [sic]), pH 7.4.

Test [14] has as its system Theo-421 truncation, minimum free energy structure (T7_theo421_polyA_MFE) (RNA, aptamer) GGGGUCCCUCAUGUGCCUUCCAGCGGUACGAUACUCAGGACCCCCAAAAAAAAAAAAAAAAAAAAAAAA
Particulars: Na+ (1.5 M NaCl [sic]), Mg2+ 0.5 mM; HBS-N (0.1 M HEPES [sic]), pH 7.4.

Test [15] relates to Acic-145 large stem loop (T7_acic145_polyA) (RNA, aptamer) GGGACCGGAAUAACCGAAGUAGUUUAUGGGCUACCGAAAUCCGGUCCCCAAAAAAAAAAAAAAAAAAAAAAAA
As to conditions: Na+ (1.5 M NaCl [sic]), Mg2+ 0.5 mM; HBS-N (0.1 M HEPES [sic]), pH 7.4.

Test [16] deals with Acic-145 (full length, G12A, SPR form) (RNA, ribozyme) GGGAAACAAACAAAGCUGUCACCGGAAUAACCGAAGUAGUUUAUGGGCUACCGAAAUCCGGUCUGAUGAGUCCUCGGGGUGGACAAAACAGCAAAAAAAAAAAAAAAAAA
As to conditions: Na+ (1.5 M NaCl [sic]), Mg2+ 0.5 mM; HBS-N (0.1 M HEPES [sic]), pH 7.4.

A word on the KD: it is the concentration at which binding is half-saturated. Higher therefore signals lower affinity. In the case of `C/C(=C\CNc1ncnc2[nH]cnc12)CO`, the KD is listed as 37 ± 3 µM in test [1], 62 ± 20 µM in test [2] and 3.1 ± 0.5 µM in test [3]. Moreover, the binding result in [4] is recorded as “no”.
With `CCNCc1nc2c(N)nc3ccccc3c2n1CC(C)(C)O`, the KD in [5] is 0.0101 µM.
On to `COc1ccc(C[C@H]2c3cc(O)c(OC)cc3CCN2C)cc1O`, for which, in [6], the “Equilibrium KD” value came out at 0.465 µM. Also, in [7], the equilibrium dissociation constant (KD) was determined as 0.15 ± 0.01 µM. The binding result in test [8] is recorded as “no”.
`COc1ccc2c(c1OC)C(=O)O[C@@H]2[C@H]1c2c(cc3c(c2OC)OCO3)CCN1C`: the figures for the KD in [9] and in test [11] were 13 ± 2 µM and 20 ± 7 µM, respectively. In test [10], the “Equilibrium KD” value is 28.7 µM.
On to `Cn1c(=O)c2[nH]cnc2n(C)c1=O`, for which the dissociation constant (KD) in [12] is given as 68 ± 20 µM; in [13], 17.0 ± 0.7 µM. Also, in test [14], the binding entry is on record as “no”.
Regarding `Nc1nc2c(ncn2COCCO)c(=O)[nH]1`, the KD in test [15] is 0.700 ± 0.004 µM; in test [16] it was 1.5 ± 0.3 µM.
